Source: patent US6972288B1, “4-amino-quinazoline and quinoline derivatives having an inhibitory effect on signal transduction mediated by tyrosine kinases” (Boehringer Ingelheim Pharma KG, priority 1999, dated 2005)

What was measured:
[1] = biological target: T1, human EGF-R (Homo sapiens, UniProt P00533); assay: Inhibition of EGF-dependent proliferation of F/L-HERc cells (Cell Titer 96 AQueous assay); format: cell-based; settings: F/L-HERc cells (murine IL-3-dependent line expressing human EGF-R), stimulated with EGF 20 ng/ml, 48 hours at 37° C.
T1 construct: expressed in transfected cells; host or cells: F/L-HERc cells, derived from the murine IL-3-dependent line FDC-P1 ('FDC-PI' [sic]); retroviral vector LXSN, packaging line GP+E86
Source text: A cell line of murine origin dependent on interleukin-3 (IL-3) which was genetically modified to express functional human EGF-R was used here. The proliferation of these cells known as F/L-HERc can therefore be stimulated either by murine IL-3 or by EGF (cf. von Rüden, T. et al. in EMBO J. 7, 2749-2756 (1988) and Pierce, J. H. et al. in Science 239. 628-631 (1988)).
The starting material used for the F/L-HERc cells was the cell line FDC-PI, the production of which has been described by Dexter, T. M. et al, in J. Exp. Med. 152, 1036-1047 (1980). alternatively, however, other growth-factor-dependent cells may also be used (cf. for example Pierce, J. H. et al. in Science 239, 628-631 (1988), Shibuya, H. et al. in Cell 70, 57-67 (1992) and alexander, W. S. et al. in EMBO J. 10, 3683-3691 (1991)). For expressing the human EGF-R cDNA (cf. Ullrich, A. et al. in Nature 309, 418-425 (1984)) recombinant retroviruses were used as described by von Rüden, T. et al., EMBO J. 7, 2749-2756 (1988), except that the retroviral vector LXSN (cf. Miller, A. D. et al. in BioTechniques 1, 980-990 (1989)) was used for the expression of the EGF-R cDNA and the line GP+E86 (cf, Markowitz, D, et al. in J. Virol. 62, 1120-1124 (1988)) was used as the packaging cell.
The test was performed as follows: • F/L-HERC cells were cultivated in RPMI/1640 medium (BioWhittaker), supplemented with 10% foetal calf serum (FCS, Boehringer Mannheim). 2 mM glutamine (BioWhittaker), standard antibiotics and 20 ng/ml of human EGF (Promega), at 37° C. and 5% CO2. In order to investigate the inhibitory activity of the compounds according to the invention, 1.5×10^4 cells per well were cultivated in triplicate in 96-well plates in the above medium ([…]), the cell proliferation being stimulated with either EGF (20 ng/ml) or murine IL-3. The IL-3 used was obtained from culture supernatants of the cell line X63/0 mIL-3 (cf. Karasuyama, 4. et al. in Eur. J. Immunol. 18, 97-104 (19881). The compounds according to the invention were dissolved in 100% dimethylsulphoxide (DMSO) and added to the cultures in various dilutions, the maximum DMSO concentration being 1%. The cultures were incubated for 48 hours at 37° C.
In order to determine the inhibitory activity of the compounds according to the invention the relative cell number was measured in O.D. units using the Cell Titer 96™ AQueous Non-Radioactive Cell Proliferation Assay (Promega). The relative cell number was calculated as a percentage of the control (F/LHERc cells without inhibitor) and the concentration of active substance which inhibits the proliferation of the cells by 50% (IC50) was derived therefrom.

T1 sequence (P00533 25-1210): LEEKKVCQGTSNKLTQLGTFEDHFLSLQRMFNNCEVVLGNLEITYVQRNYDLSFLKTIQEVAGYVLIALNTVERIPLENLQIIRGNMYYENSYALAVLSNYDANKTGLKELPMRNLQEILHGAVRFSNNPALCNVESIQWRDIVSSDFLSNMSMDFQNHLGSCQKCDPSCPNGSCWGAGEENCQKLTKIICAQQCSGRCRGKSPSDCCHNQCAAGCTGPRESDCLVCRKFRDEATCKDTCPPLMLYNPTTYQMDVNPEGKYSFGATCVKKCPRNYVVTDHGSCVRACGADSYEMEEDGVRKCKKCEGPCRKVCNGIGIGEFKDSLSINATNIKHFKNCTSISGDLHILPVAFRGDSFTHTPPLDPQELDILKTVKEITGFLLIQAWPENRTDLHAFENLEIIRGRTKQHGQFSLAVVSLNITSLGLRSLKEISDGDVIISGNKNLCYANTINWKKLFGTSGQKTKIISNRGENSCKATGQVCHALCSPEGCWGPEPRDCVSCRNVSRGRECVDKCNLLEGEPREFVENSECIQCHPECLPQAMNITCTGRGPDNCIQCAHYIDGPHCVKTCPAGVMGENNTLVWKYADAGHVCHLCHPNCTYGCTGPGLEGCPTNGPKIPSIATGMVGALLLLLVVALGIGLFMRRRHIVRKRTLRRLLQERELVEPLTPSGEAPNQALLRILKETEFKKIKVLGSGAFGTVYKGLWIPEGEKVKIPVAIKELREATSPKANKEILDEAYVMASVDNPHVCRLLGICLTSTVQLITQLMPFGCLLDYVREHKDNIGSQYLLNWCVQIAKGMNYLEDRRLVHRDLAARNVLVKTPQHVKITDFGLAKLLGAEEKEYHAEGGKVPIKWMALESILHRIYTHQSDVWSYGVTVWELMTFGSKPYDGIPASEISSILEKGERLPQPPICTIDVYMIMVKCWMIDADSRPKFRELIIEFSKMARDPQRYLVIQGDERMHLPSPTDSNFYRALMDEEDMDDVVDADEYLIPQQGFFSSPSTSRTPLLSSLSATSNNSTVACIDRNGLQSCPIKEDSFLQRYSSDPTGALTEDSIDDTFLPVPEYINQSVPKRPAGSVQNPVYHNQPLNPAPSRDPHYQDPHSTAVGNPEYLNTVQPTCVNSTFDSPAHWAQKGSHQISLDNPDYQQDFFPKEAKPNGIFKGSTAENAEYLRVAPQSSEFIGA

C=CC(=O)Nc1cc2c(Nc3cccc(Br)c3)ncnc2cc1OCCCN1CCN(CC(=O)OCC)CC1 [Example 1, 4-[(3-Bromophenyl)amino]-7-(3-{4-[(ethoxycarbonyl)methyl]-piperazin-1-yl)propyloxy)-6-[(vinylcarbonyl)amino]-quinazoline]
IC50 [1]: 2.6 nM
melting point: 80 to 85 °C

CCOC(=O)CN(C)CC=CC(=O)Nc1ccc2ncnc(Nc3cccc(Br)c3)c2c1 [Example 2, 4-[(3-Bromophenyl)amino]-6-[(4-{N-[(ethoxycarbonyl)methyl]-N-methylamino}-1-oxo-2-buten-1-yl)-amino]-quinazoline]
IC50 [1]: 5.2 nM
melting point: 182 to 183 °C

CCOC(=O)CN(CC=CC(=O)Nc1cc2c(Nc3ccc(F)c(Cl)c3)ncnc2cc1OCC1CC1)CCOC(C)=O [Example 11, 4-[(3-chloro-4-fluorophenyl)amino]-6-[(4-(N-[(ethoxycarbonyl)-methyl]-N-[2-(methylcarbonyloxy)ethyl]amino]-1-oxo-2-buten-1-yl)amino]-7-cyclopropylmethoxy-quinazoline]
IC50 [1]: 74 nM
melting point: 90 to 92 °C
